Source: paper PMC4411300, “Reconstitution and structure of a bacterial Pnkp1–Rnl–Hen1 RNA repair complex” (Nature Communications, 2015)

Key:
[1] = molecular target: Hen1 in the Pnkp1–Rnl–Hen1 heterohexamer (CgiHen1) (Capnocytophaga gingivalis, UniProt Z9ZGS5E134); experiment: X-ray crystal structure, […] Å, co-purified ligand; assay type: binding; conditions: methyltransferase active site of Hen1; retained from E. coli expression, not added; weak density, low occupancy
[2] = molecular target: Capnocytophaga gingivalis Pnkp1 (Capnocytophaga gingivalis); experiment: SEC; purified proteins analysed singly, or two proteins combined in equimolar and incubated at 4 °C for an hour before size-exclusion chromatography

stoichiometry N [2]	Molecule	X-ray crystal structure, 3.4 Å, co-purified ligand [1]
–	Nc1ncnc2c1ncn2[C@@H]1O[C@H](CSCC[C@H](N)C(=O)O)[C@@H](O)[C@H]1O [SAH]	SAH was modelled in the methyltransferase active site of Hen1-b
2	Capnocytophaga gingivalis Pnkp1 (enzyme)	–
